For 34 compounds, IC50 results are on record in patent publication US20090163546A1, “DIACYLGLYCEROL ACYLTRANSFERASE INHIBITORS” (priority 2007, published 2009).

Structures are written as SMILES. Where only a bound is given, the exact number is not on record here.

The experiment concerns DGAT. Briefly: DGAT Phospholipid FlashPlate Assay. The class given is biochemical. The settings on record: DGAT pellet, DAG-coated PL-FlashPlate, 14C-Pal-CoA, 37° C. for 1 hour; read-out: Activity in DGAT Phospholipid FlashPlate Assay (A = IC50 < 0.10 μM, B = IC50 ≧ 0.10 μM). The procedure: Materials for the assay were: PL-FlashPlate: Phospholipid FlashPlates from PerkinElmer, catalog number SMP108; DAG (1,2-Dioleoyl-sn-glycerol) 10 mM suspended in water containing 0.1% Triton X-100; ^14C-Pal-CoA (palmitoyl coenzyme A, [palmitoyl-1-^14C]) from PerkinElmer, catalog number NEC-555 with a specific activity of 55 mCi/mmol; and DGAT pellet, with a protein concentration of 9.85 mg/ml.
Aqueous buffers were prepared or purchased as follows: The coating buffer (CB) was purchased from PerkinElmer, catalog number SMP900A; the reaction buffer (RB) was 50 mM Tris-HCl, pH 7.5, 100 mM NaCl, 0.01 % BSA in water; the washing buffer (WB) is 50 mM Tris-HCl, pH 7.5, 100 mM NaCl, 0.05 % deoxycholic acid sodium salt in water; the dilution buffer (DB) was 50 mM Tris-HCl, pH 7.5, 100 mM NaCl, 1 mM EDTA, 0.2% Triton X-100 in water.
1,2-Dioleoyl-sn-glycerol (DAG, 10 mmoles) was diluted to 500 μM with coating buffer (CB). The diluted DAG solution was then added to 384-well PL-FlashPlates at 60 μl per well, and incubated at room temperature for 2 days. The coated plates were then washed twice with washing buffer (WB) before use. Test compounds were serial diluted to 2000, 666.7, 222.2, 74.1, 24.7, 8.2, 2.7 and 0.9 μM in 100% DMSO. Diluted compound were further diluted 10 fold with reaction buffer (RB). ^14C-Pal-CoA was diluted to 8.3 μM with RB. The DGAT pellet was diluted to 0.13 mg protein/ml with dilution buffer (DB) immediately before it was added to the PL-FlashPlates to start the reaction. 20 μl of the RB-diluted compounds (or 10% DMSO in RB for Total and Blank), 15 μl of RB diluted 14C-Pal-CoA and 15 μl of DB diluted DGAT pellet (DB without DGAT for Blanks) were transferred to each well of the PL-FlashPlates. The reaction mixtures were incubated at 37° C. for 1 hour. The reactions were stopped by washing 3 times with WB. Plates were sealed with Top-seal and read on a Topcount instrument.
Calculation of IC50: The IC50 values for each compound were generated using an Excel template. The Topcount rpm readings of Total and Blank were used as 0% and 100% inhibition. The percent inhibition values of reactions in the presence of compounds were calculated, and plotted against compound concentrations. All data were fitted into a Dose Response One Site model (4 parameter logistic model) as the following:
(A+((B−A)/(1+((x/C)̂D)))),
with A and B as the bottom and top of the curve ([…]), respectively, and C as IC50 and D as Hill Coefficient of the compound.
For `COc1ccc(Cl)cc1NC(=O)Nc1ccc2c(c1)c(=O)[nH]n2Cc1ccccc1` [Example 1, 1-(1-Benzyl-3-oxo-2,3-dihydro-1H-indazol-5-yl)-3-(5-chloro-2-methoxy-phenyl)-urea], the IC50 was at least 100 nM.
As to `CCOc1ccccc1NC(=O)Nc1ccc2c(c1)c(=O)[nH]n2Cc1ccccc1` [Example 2, 1-(1-Benzyl-3-oxo-2,3-dihydro-1H-indazol-5-yl)-3-(2-ethoxy-phenyl)-urea], the IC50 was at least 100 nM.
Consider `COc1ccccc1NC(=O)Nc1ccc2c(c1)c(=O)[nH]n2Cc1ccccc1` [Example 3, 1-(1-Benzyl-3-oxo-2,3-dihydro-1H-indazol-5-yl)-3-(2-methoxy-phenyl)-urea], for which the IC50 is at least 100 nM.
Take `CCCn1[nH]c(=O)c2cc(NC(=O)Nc3ccccc3OC(F)(F)F)ccc21` [Example 4, 1-(3-Oxo-1-propyl-2,3-dihydro-1H-indazol-5-yl)-3-(2-trifluoromethoxy-phenyl)-urea]: the half-maximal inhibitory concentration (IC50) is at least 100 nM.
The figure for `CCCCc1ccc(NC(=O)Nc2ccc3c(c2)c(=O)[nH]n3CCC)cc1` [Example 5, 1-(4-Butyl-phenyl)-3-(3-oxo-1-propyl-2,3-dihydro-1H-indazol-5-yl)-urea] is at least 100 nM.
As to `CCCn1[nH]c(=O)c2cc(NC(=O)Nc3cc(C)ccc3OC)ccc21` [Example 6, 1-(2-Methoxy-5-methyl-phenyl)-3-(3-oxo-1-propyl-2,3-dihydro-1H-indazol-5-yl)-urea], the IC50 is at least 100 nM.
Then `CCCn1[nH]c(=O)c2cc(NC(=O)Nc3cc(Cl)ccc3OC)ccc21` [Example 7, 1-(5-Chloro-2-methoxy-phenyl)-3-(3-oxo-1-propyl-2,3-dihydro-1H-indazol-5-yl)-urea], with under 100 nM.
`CCCn1[nH]c(=O)c2cc(NC(=O)Nc3ccccc3C(C)C)ccc21` [Example 8, 1-(2-Isopropyl-phenyl)-3-(3-oxo-1-propyl-2,3-dihydro-1H-indazol-5-yl)-urea]: the half-inhibitory concentration (IC50) was at least 100 nM.
Then `CCCn1[nH]c(=O)c2cc(NC(=O)Nc3ccc(Cl)c(Cl)c3)ccc21` [Example 9, 1-(3,4-Dichloro-phenyl)-3-(3-oxo-1-propyl-2,3-dihydro-1H-indazol-5-yl)-urea], with under 100 nM; and `CCCn1[nH]c(=O)c2cc(NC(=O)Nc3ccccc3CC)ccc21` [Example 10, 1-(2-Ethyl-phenyl)-3-(3-oxo-1-propyl-2,3-dihydro-1H-inidazol-5-yl)-urea], with under 100 nM.
For `CCCn1[nH]c(=O)c2cc(NC(=O)Nc3cc(Cl)ccc3Cl)ccc21` [Example 11, 1-(2,5-Dichloro-phenyl)-3-(3-oxo-1-propyl-2,3-dihydro-1H-indazol-5-yl)-urea], the IC50 is at least 100 nM.
Regarding `CCCn1[nH]c(=O)c2cc(NC(=O)Nc3ccc(Cl)cc3Cl)ccc21` [Example 12, 1-(2,4-Dichloro-phenyl)-3-(3-oxo-1-propyl-2,3-dihydro-1H-indazol-5-yl)-urea], the half-maximal inhibitory concentration (IC50) was at least 100 nM.
With `CCCn1[nH]c(=O)c2cc(NC(=O)Nc3ccc(C(F)(F)F)cc3)ccc21` [Example 13, 1-(3-Oxo-1-propyl-2,3-dihydro-1H-indazol-5-yl)-3-(4-trifluoromethyl-phenyl)-urea], the IC50 is at least 100 nM.
On to `CCCn1[nH]c(=O)c2cc(NC(=O)Nc3ccccc3)ccc21` [Example 14, 1-(3-Oxo-1-propyl-2,3-dihydro-1H-indazol-5-yl)-3-phenyl-urea], for which the IC50 is at least 100 nM.
As to `CCCn1[nH]c(=O)c2cc(NC(=O)Nc3cccc(Cl)c3)ccc21` [Example 15, 1-(3-Chloro-phenyl)-3-(3-oxo-1-propyl-2,3-dihydro-1H-indazol-5-yl)-urea], the IC50 is at least 100 nM.
As to `CCCn1[nH]c(=O)c2cc(NC(=O)Nc3cccc(C)c3)ccc21` [Example 16, 1-(3-Oxo-1-propyl-2,3-dihydro-1H-indazol-5-yl)-3-m-tolyl-urea], the IC50 was at least 100 nM.
Turning to `CCCn1[nH]c(=O)c2cc(NC(=O)Nc3cccc(F)c3)ccc21` [Example 17, 1-(3-Fluoro-phenyl)-3-(3-oxo-1-propyl-2,3-dihydro-1H-indazol-5-yl)-urea], the IC50 was at least 100 nM.
Consider `CCCn1[nH]c(=O)c2cc(NC(=O)Nc3ccc(F)cc3F)ccc21` [Example 18, 1-(2,4-Difluoro-phenyl)-3-(3-oxo-1-propyl-2,3-dihydro-1H-indazol-5-yl)-urea], for which the IC50 was at least 100 nM.
For `CCCn1[nH]c(=O)c2cc(NC(=O)Nc3cccc(Br)c3)ccc21` [Example 19, 1-(3-Bromo-phenyl)-3-(3-oxo-1-propyl-2,3-dihydro-1H-indazol-5-yl)-urea], the IC50 is at least 100 nM.
In the case of `CCCn1[nH]c(=O)c2cc(NC(=O)Nc3ccccc3OC)ccc21` [Example 20, 1-(2-Methoxy-phenyl)-3-(3-oxo-1-propyl-2,3-dihydro-1H-indazol-5-yl)-urea], the 50% inhibitory concentration (IC50) was at least 100 nM.
On to `CCCn1[nH]c(=O)c2cc(NC(=O)Nc3ccccc3Cl)ccc21` [Example 21, 1-(2-Chloro-phenyl)-3-(3-oxo-1-propyl-2,3-dihydro-1H-indazol-5-yl)-urea], for which the IC50 is at least 100 nM.
`CCCn1[nH]c(=O)c2cc(NC(=O)Nc3ccccc3F)ccc21` [Example 22, 1-(2-Fluoro-phenyl)-3-(3-oxo-1-propyl-2,3-dihydro-1H-indazol-5-yl)-urea]: the IC50 was at least 100 nM.
Consider `COc1c(Cl)cccc1NC(=O)Nc1ccc2c(c1)c(=O)[nH]n2Cc1ccccc1` [Example 23, 1-(1-Benzyl-3-oxo-2,3-dihydro-1H-indazol-5-yl)-3-(3-chloro-2-methoxy-phenyl)-urea], for which the IC50 was at least 100 nM.
The figure for `CCOC(=O)Cn1[nH]c(=O)c2cc(NC(=O)Nc3ccccc3CC)ccc21` [Example 24, {5-[3-(2-ethyl-phenyl)-ureido]-3-oxo-2,3-dihydro-indazol-1-yl}-acetic acid ethyl ester] is at least 100 nM; for `CCc1ccccc1NC(=O)Nc1ccc2c(c1)c(=O)[nH]n2CCOCCOC` [Example 25, 1-(2-ethyl-phenyl)-3-{1-[2-(2-methoxy-ethoxy)-ethyl]-3-oxo-2,3-dihydro-1H-indazol-5-yl}-urea] it is at least 100 nM.
As to `CCc1ccccc1NC(=O)Nc1ccc2c(c1)c(=O)[nH]n2CCOC` [Example 26, 1-(2-ethyl-phenyl)-3-[1-(2-methoxy-ethyl)-3-oxo-2,3-dihydro-1H-indazol-5-yl]-urea], the IC50 is at least 100 nM.
Take `CCCn1[nH]c(=O)c2cc(NC(=O)Nc3cccc4cccnc34)ccc21` [Example 27, 1-(3-Oxo-1-propyl-2,3-dihydro-1H-indazol-5-yl)-3-quinolin-8-yl-urea]: the 50% inhibitory concentration (IC50) is under 100 nM.
The figure for `CCCn1[nH]c(=O)c2cc(NC(=O)Nc3ccccc3N3CCCCC3)ccc21` [Example 28, 1-(3-Oxo-1-propyl-2,3-dihydro-1H-indazol-5-yl)-3-(2-piperidin-1-yl-phenyl)-urea] is at least 100 nM; for `CCCn1[nH]c(=O)c2cc(NC(=O)Nc3ccccc3C(C)CC)ccc21` (stereo not shown) [Example 29, 1-(2-sec-Butyl-phenyl)-3-(3-oxo-1-propyl-2,3-dihydro-1H-indazol-5-yl)-urea] it is at least 100 nM.
For the compound `O=C(Nc1ccc2c(c1)c(=O)[nH]n2Cc1ccccc1)Nc1ccccc1N1CCCCC1` [Example 30, 1-(1-Benzyl-3-oxo-2,3-dihydro-1H-indazol-5-yl)-3-(2-piperidin-1-yl-phenyl)-urea], the IC50 was at least 100 nM.
As for `C#Cc1cccc(NC(=O)Nc2ccc3c(c2)c(=O)[nH]n3CCC)c1` [Example 31, 1-(3-Ethynyl-phenyl)-3-(3-oxo-1-propyl-2,3-dihydro-1H-indazol-5-yl)-urea], the IC50 is at least 100 nM.
As for `CCCn1[nH]c(=O)c2cc(NC(=O)Nc3cccc(C(F)(F)F)c3)ccc21` [Example 32, 1-(3-Oxo-1-propyl-2,3-dihydro-1H-indazol-5-yl)-3-(3-trifluoromethyl-phenyl)-urea], the IC50 was at least 100 nM.
Turning to `CC(C)Oc1cccc(NC(=O)Nc2ccc3c(c2)c(=O)[nH]n3Cc2ccccc2)c1` [Example 33, 1-(1-Benzyl-3-oxo-2,3-dihydro-1H-indazol-5-yl)-3-(3-isopropoxy-phenyl)-urea], the IC50 is at least 100 nM.
Regarding `O=C(Nc1cccc(C(F)(F)F)c1)Nc1ccc2c(c1)c(=O)[nH]n2Cc1ccccc1` [Example 34, 1-(1-Benzyl-3-oxo-2,3-dihydro-1H-indazol-5-yl)-3-(3-trifluoromethyl-phenyl)-urea], the IC50 was at least 100 nM.
